Key:
[1] = tested on: ovariectomized mouse (type I osteoporosis model animal); assay: Change of bone mass in type I osteoporosis model animal (ovariectomized mice, dosing 3 months, femur pQCT); format: in vivo
Text: Female Slc: ddy mice of 4 weeks old (Japan SLC, Inc.) was operated with ovariectomy to use as a type I osteoporosis model animal. Also, in order to delete the affection by invasion, a group which is operated without ovariectomy (Sham operation) is set (Sham group). These were the […] model animals.
Animal bedding were changed twice a week and always to use all fresh one, CRF-1 (Oriental Yeast Co., Ltd.) is fed as feed and deionized water as drinking water were freely given. Their body weights were weighed twice a week by the end of the experiment.
Fargesin was dissolved in 30 mL of a solution (it is referred to as “TD solution”, hereinbelow) containing 4% dimethyl sulfoxide (it is referred to as “DMSO”, hereinbelow) and 4% TWEEN 80 (both were purchased from Wako Pure Chemical Industries, Ltd.) so as that a dosage amount of fargesin becomes 20 mg/kg body wt/day, or […].
After the surgical operation, the mice were adapted to the circumstances for 5 days, and then they were divided to the Sham group, the negative control, the positive control group, and the test substance administration group (6 mice per group). The ovariectomized mice were used for the negative control group, the positive control group, and the test substance administration group.
Fargesin solution was daily administrated to the ovariectomized mice in the test group at the dosage of 20 mg/kg body wt/day (it is referred to as “F20 group”, hereinbelow) or 100 mg/kg body wt/day (it is referred to as “F100 group”, hereinbelow) for 3 month p.o.
In order to study effects of fargesin on the bone, the femur, the largest long bone, was used.
The mice in each group were killed by the cervical dislocation under diethyl ether anesthesia. Their right femurs were excised with muscles, and the muscles were removed from the femur after the excision. Lengths of the excised bones from the mice in the groups were measured, and they were dipped in 70% ethanol to be fixed.
In FIG. 3, the bone was shown schematically. The long bone (tubular bone) was composed of two thick and rounded ends (epiphysis), and thin and long part between them (a shaft). The bone extends to longitudinal direction, depending on the growth of a plate-shape epiphyseal cartilage (a growth plate) between the epiphysis and the shaft. The region of 1 mm proximal side from the A position for a measurement was set to that from 1 mm proximal region (epiphysis) from the distal growth plate as decided as the measurement region.
The bone density was measured by using the peripheral quantitative computed tomography (pQCT, XCT Research SA+, Stratec Medizintechnik GmbH, Merk Ltd) (FIG. 3B). The measurement was performed under the conditions: a diameter of 90 mm, a voxel size of 0.12 mm, a CT speed of 10 mm/sec, and a block number of 1. Bone mineral content (mg/mm), bone density (mg/cm^3), and cross section of the bone (mm^2) of the entire of tomographic images (whole bone area) were calculated.
Next, the area of the cancellous bone was extracted (peel mode 20), and then the bone mineral amount (mg/mm), the section of the bone (mm^2), and the bone density (mg/cm^3) were calculated. Further to the cortical bone, the bone mineral amount (mg/mm), the bone density (mg/cm^3), the section of the bone (mm^2), a bone thickness (mm), the periosteum perimeter of the cortical bone (mm), and the endosteum perimeter of the cortical bone (mm) were calculated.
Based on the bone diameter and the bone density measured by the pQCT, SSI was calculated. SSI is composed of Polar SSI (torsion strength in polar coordination), X-axis SSI (strength in X axis, three-point bending strength), and Y-axis SSI (Y axis strength, three-point lateral bending strength), and it is expressed by the following general equation.
Wherein, Z is the coefficient of the cross section (mm^3), CBD is the bone density of the cortical bone (mg/cm^3), and ND is the physiological bone density (1200 mg/cm^3). The coefficient Z is shown as the following equation.

[2] = tested on: ovariectomized mouse (OVX mouse); assay: Bone formation in ovariectomized mouse (OVX mouse), dosing after bone resorption induction period, femur pQCT; format: in vivo; conditions: 80 μg/kg/day s.c.
Experimental: Four-week-old female Slc; ddy mice (Japan SLC, Inc.) were purchased, and they were divided into 8 groups without acclimate keeping (6 mice per group). They were anesthetized by using 50 mg/kg of pentobarbital to be ovariectomized (it is referred to as “OVX” herein below) or to have Sham operation (it is referred to as “Sham” herein below) under the anesthesia which is given by intraperitoneal administration of 50 mg/kg of Somnopentyl (pentobarbital sodium).
From the second day of the ovariectomy (or Sham operation), each group was maintained under the condition of 12 hour light/dark cycle, 23±3 degree centigrade as the room temperature, and humidity 55±5% for 2 months as the bone resorption induction period. The animal bedding was exchanged twice a week and all fresh bedding was used at all times. CRF-1 (Oriental Yeast Co., Ltd.) as the feed and deionized water as drinking water were freely given.
After two month period from the test start, the bone resorption induction period, the test substance were given to each group at the amount shown in the following Table 7 for 3 month.
Ninety % of MeOH fraction (Shin-i) obtained in Example 1 and Fargesin (may refer to “Far” thereafter) were respectively dissolved into TD solution at the concentration shown in Table 7, and then they were administrated per os.
Human PTH (1-34) (herein below, it is sometimes referred to as “hPTH (1-34)”) were dissolved in distilled water at the concentration of 80 μg/kg/day, and it was administrated subcutaneously.
After 3 month from the administration start, the mice belonging to all of the groups were weighed. They were anesthetized by using diethylether, and were collected their blood from their hearts, and then they were died. Then, organs such as the uterus, the white adipose tissue (WAT), the brown adipose tissue (BAT), the liver, the spleen, and both left and right lower extremities were removed. The left and right lower extremities were separated into the femurs and the tibias, and they were stored in 70% EtOH under the room temperature.
The muscles were removed from the obtained femur (right), and then its bone density and the like were measured by using pQCT employed in Example 1 under the following conditions.
Recognition of contour (CONTMODE): 2 (auto search of ROI)
Recognition method of cancellous bone: Surface & Area
Ration of cancellous bone area to all of the cross section areas: 35%
CORTMODE used in CORTBD: 1* * Voxels not larger than the standard value for distinguishing the cortical bone from the cancellous bone (threshold: threshold) were omitted. Each tissue weight was also measured.
TH value used in CORTBD: 690
Among the all data of cancellous bone density obtained from pQCT, both of the highest and the lowest data were deleted to obtain the Median. As to the other parameters were treated as the same as this, the graph was made with N=6. Statistical analysis was performed by using the Dennett's two-sided t test.

[3] = tested on: TRACP5b; assay: Serum TRACP5b of OVX mice (bone metabolism marker); format: in vivo, mouse; conditions: 80 μg/kg/day s.c.; compared to the OVX group
Experimental: All obtained blood from the heart under diethyl ether anesthesia at dissection was stored at 4 degree centigrade for 24 hours. Then, the blood was centrifuged at 3,000 rpm (4,000×g) for 15 minutes to separate the sera.
According to the protocol of Mouse TRAP™ Assay (Immuno-diagnostic Systems Ltd, the United of Kingdom), TRACP5b in the obtained sera was determined.

[4] = OVX mice, B100 group: 100 μg/kg body wt/day i.p.
[5] = OVX mice, B100 group: 100 μg/kg body wt/day i.p. (text prints F100 group)
[6] = OVX mice, B100 group: 100 μg/kg body wt/day i.p., right femur, pQCT
[7] = OVX mice, 3 months dosing after 2-month induction

C[C@]12CC[C@@H]3c4ccc(O)cc4CC[C@H]3[C@@H]1CC[C@@H]2O [β-estradiol, reference compound]
Average body weight during mouse growth ([1]; B100 group: 100 μg/kg body wt/day i.p., versus NC group): lower than that of NC group mice
Cortical bone Bone density [1, 4]: 867.475 ± 13.724 mg/mL
Cortical bone Bone thickness [1, 4]: 0.365 ± 0.038 mm
Cortical bone adventitia diameter [1, 4]: 7.9895 ± 0.096 mm
Cortical bone lining membrane diameter [1, 4]: 5.699 ± 0.229 mm
Polar axis bone strength (Table 3) [1, 4]: 1.946 ± 0.107 mm^3
bone mineral mass, cancellous bone [1, 4]: 0.725±0.110 mg/mm
bone mineral mass, whole bone [1, 4]: 3.325±0.203 mg/mm
bone mineral mass, cortical bone [1, 5]: 2.163±0.230 mg/mm
cross section area of the bone, cortical bone [1, 5]: 2.4825±0.230 mm^2
Polar axis strength (polar coordinates strength) ([1]; OVX mice, B100 group: 100 μg/kg body wt/day i.p., SSI from pQCT): 1.376±0.088 mm^3
Bone density Cancellous bone [1, 6]: 399.050 ± 53.851 mg/mL
Bone density whole bone [1, 6]: 652.025 ± 28.386 mg/mL

hPTH(1-34): Human PTH (1-34), dissolved in distilled water, administrated subcutaneously [reference compound]
Bone density of cancellous bone, relative value ([2]; 5M Sham = 100): 76.1
Bone density of cortical bone, relative value ([2]; 5M Sham = 100): 92.2
Bone density of the whole bones, relative value ([2]; 5M Sham = 100): 86.0
Bone strength (polar coordinates torsion strength) ([2]; compared to Control OVX group): significantly increased
Bone density of cancellous bone [2, 7]: 88.83 ± 30.90 mg/cm^2
Bone density of cortical bone [2, 7]: 906.50 ± 32.19 mg/cm^2
Bone thickness of cortical bone [2, 7]: 0.22 ± 0.03 mm
Cross section area of cortical bone [2, 7]: 1.69 ± 0.25 mm^2
Perimeter of cortical bone adventitia [2, 7]: 8.37 ± 0.26 mm
Perimeter of cortical bone lining membrane [2, 7]: 6.98 ± 0.34 mm
Bone density of the whole bones ([2]; OVX mice, 3 months dosing after 2-month induction, right femur, pQCT): 452.25 ± 49.00 mg/cm^2
level of TRACP5b in the sera [3]: did not show major alteration

Source: patent US20130253048A1, “Pharmaceutical Composition for Promoting Osteogenesis Containing Axial-equatorial Aryl-oriented Furofuran-type Lignan, and Pharmaceutical Preparation, Functional Food Product, and Health Food Product Comprising Composition” (ERINA CO., INC., priority 2010, published 2013)
